Results published in PubChem BioAssay AID2060901 (Molecular Pharmacology Branch, DTP, NCI, 2025).

Test system: 422866-222-R5-J1-PDC complex spheroids viability
Assay: Anticancer human tumor 422866-222-R5-J1-PDC patient-derived pancreatic adenocarcinoma cell line growth inhibition [RAS]
Conditions: for IC50: curve of first compound; for viability, T/C: stronger effect = lower value
Source text: RAS pathway inhibitors in Combinations in Complex Spheroids
A high-throughput screen of multi-cell type tumor spheroids was designed to identify active combinations of RAS pathway inhibitors and targeted small molecules. Complex spheroids include a stromal component modeled by human endothelial cells (HUVEC) and fibroblasts modeled by human mesenchymal stem cells (MSCs). The concentration ranges selected for each drug and investigational agent were based upon clinically achievable concentrations if the clinical Cmax of the agent was known.
Compounds. The drugs and investigational agents: abemaciclib (NSC768073), cobimetinib (NSC768068), divarasib (GDC6063, NSC841802), docetaxel (NSC628503), GDC-1971 (RLY-1971, NSC841576), gemcitabine (NSC613327), inavolisib (NSC800729), ipatasertib (NSC767898), KB-0742 (NSC834161), MRTX-1133 (NSC836407), osimertinib (NSC779217), RMC-4630 (NSC839698), RMC-6236 (NSC851965), RMC-6291 (NSC852671), Ro-3306 (NSC812927), sapanisertib (NSC764658), SN-38 (NSC673596), staurosporine (NSC755774), SY5609 (NSC837396), and tovorafenib (DAY101, NSC766906), were obtained from the National Cancer Institute (NCI) Developmental Therapeutics Program Chemical Repository. The FDA-approved anticancer drug set is available from the NCI Developmental Therapeutics Program. […] The stock solutions were prepared in dimethyl sulfoxide (DMSO, Sigma-Aldrich, St. Louis, MO, cat. D2650) at 800-fold the tested concentration and stored at -70 degrees C prior to their use. All drugs and investigational agents were tested over a range starting from a high concentration at or near the clinical Cmax and decreasing in half-log increments. If the clinical Cmax for an agent had not been determined, the highest concentration tested was 10 microM.
Cell Culture. All cells were maintained in an incubator at 37 degrees C and 5% CO2 with 95% humidity. The PDC lines were cultured according to standard operating procedures established by the NCI PDMR. All PDCs were thawed and cultured in Matrigel-coated flasks prepared with a working solution of 1X Ham's F-12 nutrient mix, without supplementation (Invitrogen, Waltham, MA, cat. 11765054), 100 U/mL penicillin-streptomycin (Invitrogen, cat. 15140122), and 2.5% Matrigel (Corning Inc., Corning, NY, cat. 354248) for the first three passages. The 362531-283-R-J2-PDC and 782815-120-R-J1-PDC lines were cultured in 6C/Colon 1B media, which includes advanced DMEM/F-12 (Thermo Fisher Scientific, cat. 12634028), 10 mM HEPES (Thermo Fisher Scientific, cat. 15630080), 1X GlutaMAX supplement (Thermo Fisher Scientific, cat. 35050061), 0.1 mg/mL primocin (InvivoGen, San Diego, CA, cat. ant-pm-2), 10% defined fetal bovine serum, heat inactivated (HyClone Laboratories Inc., Logan, UT, cat. SH30070.03HI), 50% L-WRN conditioned media (ATCC, cat. CRL-3276), 1.25 mM N-Acetyl-L-cysteine (Sigma-Aldrich, cat. A9165), 10 mM nicotinamide (Sigma-Aldrich, cat. N0636), 1X B-27 supplement (Thermo Fisher Scientific, cat. 17504044), 1X N-2 supplement (Thermo Fisher Scientific, cat. 17502048), 50 ng/mL human EGF (Thermo Fisher Scientific, cat. PHG0311), and 10 microM Y-27632 dihydrochloride (Tocris Bioscience, cat. 1254). The K12877-001-R-J1-PDC line was cultured in 6I media, which includes all 6C/Colon 1B media plus 10 ng/mL human FGF-10 (PeproTech, cat. 100-26), 1 ng/mL human FGF-2 (PeproTech, cat. 100-18B), 1 µM prostaglandin E2 (Tocris Bioscience, cat. 2296), […] hydrocortisone (Sigma-Aldrich, cat. H4001), and […] bovine insulin (Sigma-Aldrich, cat. I6634). The K86415-001-R-J1-PDC line was cultured in 6D media, which includes all 6C/Colon 1B media components minus the L-WRN conditioned media. The 485176-168-R4-J1-PDC was cultured in PANC media, which includes all 6C/Colon 1B media plus 100 ng/mL human FGF-10 (PeproTech, cat. 100-26), 500 nM SB-431542 (Selleckchem, cat. S1067), and 10 nM gastrin (Tocris Bioscience, cat. 3006). […]
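Also: spheroids exposed to compounds for 7 days.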
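For viability, T/C in this document: 100% = DMSO vehicle control viability.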

Work on `CC(C)n1nc(-c2ccc3oc(N)nc3c2)c2c(N)ncnc21` + CCn1c(-c2cc(N3CCN(C)CC3)cnc2C(C)OC)c2c3cc(ccc31)-c1csc(n1)CC(NC(=O)C1CC1C)C(=O)N1CCCC(N1)C(=O)OCC(C)(C)C2 yielded an IC50 (second compound 0.000949 µM) of under 0.316 nM, an IC50 (second compound 0.003 µM) of under 0.316 nM and an IC50 (second compound 0.00949 µM) of under 0.316 nM. The IC50 (second compound 0.03 µM) was under 0.316 nM, the IC50 (second compound 0.0949 µM) was under 0.316 nM and the IC50 (second compound 0.3 µM) was under 0.316 nM. For the same molecule, the viability, T/C (second compound 0.000949 µM, first compound 0.000316 µM) was 35.2%, the viability, T/C (second compound 0.000949 µM, first compound 0.001 µM) was 28.7% and the viability, T/C (second compound 0.000949 µM, first compound 0.00316 µM) was 24.4%. The viability, T/C (second compound 0.000949 µM, first compound 0.01 µM) was 24.5%, the viability, T/C (second compound 0.000949 µM, first compound 0.0316 µM) was 19.7% and the viability, T/C (second compound 0.000949 µM, first compound 0.1 µM) was 21%. For the same molecule, the viability, T/C (second compound 0.003 µM, first compound 0.000316 µM) was 24.4%, the viability, T/C (second compound 0.003 µM, first compound 0.001 µM) was 22.4% and the viability, T/C (second compound 0.003 µM, first compound 0.00316 µM) was 19.5%. For the same molecule, the viability, T/C (second compound 0.003 µM, first compound 0.01 µM) was 17%, the viability, T/C (second compound 0.003 µM, first compound 0.0316 µM) was 14.3% and the viability, T/C (second compound 0.003 µM, first compound 0.1 µM) was 14.4%. It also gave a viability, T/C (second compound 0.00949 µM, first compound 0.000316 µM) of 22.5%, a viability, T/C (second compound 0.00949 µM, first compound 0.001 µM) of 16.5% and a viability, T/C (second compound 0.00949 µM, first compound 0.00316 µM) of 17.8%. The viability, T/C (second compound 0.00949 µM, first compound 0.01 µM) was 14.2%, the viability, T/C (second compound 0.00949 µM, first compound 0.0316 µM) was 13.8% and the viability, T/C (second compound 0.00949 µM, first compound 0.1 µM) was 11.2%. For the same molecule, the viability, T/C (second compound 0.03 µM, first compound 0.000316 µM) was 19.3%, the viability, T/C (second compound 0.03 µM, first compound 0.001 µM) was 16.1% and the viability, T/C (second compound 0.03 µM, first compound 0.00316 µM) was 19.1%. The viability, T/C (second compound 0.03 µM, first compound 0.01 µM) was 15.7%, the viability, T/C (second compound 0.03 µM, first compound 0.0316 µM) was 11.6% and the viability, T/C (second compound 0.03 µM, first compound 0.1 µM) was 8.47%. It also gave a viability, T/C (second compound 0.0949 µM, first compound 0.000316 µM) of 17.7%, a viability, T/C (second compound 0.0949 µM, first compound 0.001 µM) of 20.1% and a viability, T/C (second compound 0.0949 µM, first compound 0.00316 µM) of 18.3%. The viability, T/C (second compound 0.0949 µM, first compound 0.01 µM) was 14.2%, the viability, T/C (second compound 0.0949 µM, first compound 0.0316 µM) was 12.2% and the viability, T/C (second compound 0.0949 µM, first compound 0.1 µM) was 10.9%. It also gave a viability, T/C (second compound 0.3 µM, first compound 0.000316 µM) of 19.7%, a viability, T/C (second compound 0.3 µM, first compound 0.001 µM) of 21.3% and a viability, T/C (second compound 0.3 µM, first compound 0.00316 µM) of 20.5%. The viability, T/C (second compound 0.3 µM, first compound 0.01 µM) was 16.4%, the viability, T/C (second compound 0.3 µM, first compound 0.0316 µM) was 14.5% and the viability, T/C (second compound 0.3 µM, first compound 0.1 µM) was 10.9%.
`O=C(c1ccc(F)c(F)c1Nc1ccc(I)cc1F)N1CC(O)([C@@H]2CCCCN2)C1` + C#Cc1c(F)ccc2cc(O)cc(-c3ncc4c(N5CC6CCC(C5)N6)nc(OCC56CCCN5CC(F)C6)nc4c3F)c12 gave an IC50 (second compound 0.0316 µM) of 45.2 nM, an IC50 (second compound 0.1 µM) of 274 nM and an IC50 (second compound 0.316 µM) of 19.8 nM. The IC50 (second compound 1 µM) was 3.62 nM, the IC50 (second compound 3.16 µM) was under 3.16 nM and the IC50 (second compound 10 µM) was under 3.16 nM. It also gave a viability, T/C (second compound 0.0316 µM, first compound 0.00316 µM) of 70.1%, a viability, T/C (second compound 0.0316 µM, first compound 0.01 µM) of 82.2% and a viability, T/C (second compound 0.0316 µM, first compound 0.0316 µM) of 52.4%. For the same molecule, the viability, T/C (second compound 0.0316 µM, first compound 0.1 µM) was 47.6%, the viability, T/C (second compound 0.0316 µM, first compound 0.316 µM) was 41.5% and the viability, T/C (second compound 0.0316 µM, first compound 1 µM) was 44.6%. For the same molecule, the viability, T/C (second compound 0.1 µM, first compound 0.00316 µM) was 81.9%, the viability, T/C (second compound 0.1 µM, first compound 0.01 µM) was 71.6% and the viability, T/C (second compound 0.1 µM, first compound 0.0316 µM) was 65.8%. The viability, T/C (second compound 0.1 µM, first compound 0.1 µM) was 53.6%, the viability, T/C (second compound 0.1 µM, first compound 0.316 µM) was 49.1% and the viability, T/C (second compound 0.1 µM, first compound 1 µM) was 46.6%. For the same molecule, the viability, T/C (second compound 0.316 µM, first compound 0.00316 µM) was 75.4%, the viability, T/C (second compound 0.316 µM, first compound 0.01 µM) was 53.2% and the viability, T/C (second compound 0.316 µM, first compound 0.0316 µM) was 46.7%. The viability, T/C (second compound 0.316 µM, first compound 0.1 µM) was 43.2%, the viability, T/C (second compound 0.316 µM, first compound 0.316 µM) was 34.9% and the viability, T/C (second compound 0.316 µM, first compound 1 µM) was 33.3%. For the same molecule, the viability, T/C (second compound 1 µM, first compound 0.00316 µM) was 50%, the viability, T/C (second compound 1 µM, first compound 0.01 µM) was 45.3% and the viability, T/C (second compound 1 µM, first compound 0.0316 µM) was 31.3%. For the same molecule, the viability, T/C (second compound 1 µM, first compound 0.1 µM) was 32.1%, the viability, T/C (second compound 1 µM, first compound 0.316 µM) was 26.9% and the viability, T/C (second compound 1 µM, first compound 1 µM) was 26.4%. It also gave a viability, T/C (second compound 3.16 µM, first compound 0.00316 µM) of 38.2%, a viability, T/C (second compound 3.16 µM, first compound 0.01 µM) of 26.1% and a viability, T/C (second compound 3.16 µM, first compound 0.0316 µM) of 24.6%. The viability, T/C (second compound 3.16 µM, first compound 0.1 µM) was 24%, the viability, T/C (second compound 3.16 µM, first compound 0.316 µM) was 19.9% and the viability, T/C (second compound 3.16 µM, first compound 1 µM) was 15.7%. The viability, T/C (second compound 10 µM, first compound 0.00316 µM) was 19.8%, the viability, T/C (second compound 10 µM, first compound 0.01 µM) was 17.8% and the viability, T/C (second compound 10 µM, first compound 0.0316 µM) was 17.9%. The viability, T/C (second compound 10 µM, first compound 0.1 µM) was 14%, the viability, T/C (second compound 10 µM, first compound 0.316 µM) was 12.2% and the viability, T/C (second compound 10 µM, first compound 1 µM) was 14.2%.
